Source: patent US8569264B2, “Antibacterial 4,5-substituted aminoglycoside analogs having multiple substituents” (ISIS Pharmaceuticals, Inc., priority 2005, dated 2013)
In brackets after ≈: the same amount, converted by molar mass.

What was measured:
E. coli ATCC 25922 = experiment: MIC, E. coli ATCC 25922; type: cell-based; settings: Escherichia coli
Procedure: (§1) The MIC assays are carried out in 150 μL volume in duplicate in 96-well clear flat-bottom plates. The bacterial suspension from an overnight culture growth in appropriate medium is added to a solution of test compound in 4% DMSO in water. Final bacterial inoculum is approximately 10^5-10^6 CFU/well. […] Both ampicillin and tetracycline are used as antibiotic-positive controls in each screening assay for S. pyogenes, E. coli imp-, E. coli, S. aureus, E. faecalis, K. pneumoniae and P. vulgaris. Ciprofloxacin is used as an antibiotic positive control in each screening assay for P. aeruginosa.
(§2) The following compounds were prepared using methods illustrated in the previous examples. The compounds were also examined in standard bacterial assays against E. Coli, S. Aureus, P. aurginosa, K. pneumoniae, P. vulgaris, and A. baumannii to determine activities. Each of the bacterial cultures that are available from ATCC (www.atcc.org) is identified by its ATCC number. A. baumannii is gentamicin sensitive Acinetobacter baumannii #2 from Walter Reed.

K. pneumoniae ATCC 10031 = experiment: MIC, K. pneumoniae ATCC 10031; type: cell-based; settings: Klebsiella pneumoniae
Procedure: as §1, §2

S. aureus ATCC 29213 = experiment: MIC, S. aureus ATCC 29213; type: cell-based; settings: Staphylococcus aureus, ATCC29213; Example 112
Procedure: (§3) The MIC assays are carried out in 150 μL volume in duplicate in 96-well clear flat-bottom plates. The bacterial suspension from an overnight culture growth in appropriate medium is added to a solution of test compound in 4% DMSO in water. Final bacterial inoculum is approximately 10^5-10^6 CFU/well. The percent growth of the bacteria in test wells relative to that observed for a well containing no compound is determined by measuring absorbance at 595 nm (A595) after 24 h. The MIC is determined as a range of single compound where the complete inhibition of growth is observed at the higher concentration and cells are viable at the lower concentrations. Both ampicillin and tetracycline are used as antibiotic-positive controls in each screening assay for S. pyogenes, E. coli imp-, E. coli, S. aureus, E. faecalis, K. pneumoniae and P. vulgaris. Ciprofloxacin is used as an antibiotic positive control in each screening assay for P. aeruginosa.
as §2, with “compound was” for “compounds were”, “pneumoniae” for “pneumoniae, P. vulgaris,”, “number.” for “number. A. baumannii is gentamicin sensitive Acinetobacter baumannii #2 from Walter Reed.”

P. aurginosa ATCC 27853 = experiment: MIC, P. aurginosa ATCC 27853; type: cell-based; settings: Example 112
Procedure: as §3
as §2, with “compound was” for “compounds were”, “pneumoniae” for “pneumoniae, P. vulgaris,”, “number.” for “number. A. baumannii is gentamicin sensitive Acinetobacter baumannii #2 from Walter Reed.”

A. baumannii ATCC 19606 = experiment: MIC, A. baumannii ATCC 19606; type: cell-based; settings: Acinetobacter baumannii, ATCC19606; Example 112
Procedure: as §3
as §2, with “compound was” for “compounds were”, “pneumoniae” for “pneumoniae, P. vulgaris,”, “number.” for “number. A. baumannii is gentamicin sensitive Acinetobacter baumannii #2 from Walter Reed.”

[1] = target: 18S ribosomal subunit RNA target; experiment: Mass spectrometry based binding assay (FTICR), 18S; settings: Example 106
Method in brief: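 Ligands at varying concentrations were mixed with 2.5 or 5 μM RNA in 100 mM ammonium acetate with 33% isopropyl alcohol, then analysed by negative-mode ESI-FTICR. Complex/free RNA ion ratios plotted against ligand concentration were fitted to a second- or higher-order binding polynomial to give KD.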

[2] = target: 16S ribosomal subunit RNA target; experiment: Mass spectrometry based binding assay (FTICR), 16S; settings: Example 106
Method in brief: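 Binding to the 16S ribosomal subunit RNA target was measured by FTICR mass spectrometry. Ligands or ligand mixtures were prepared at several concentrations in 10 μL of aqueous 100 mM ammonium acetate buffer with 33% isopropyl alcohol. Samples were infused at 1 μL/min into a negative-mode electrospray source, and ions were held 1 sec in an RF-only hexapole. Complex/free RNA ratios versus ligand concentration were fitted to a binding polynomial to obtain KD.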

[3] = test system: E. coli S30 bacterial extract (pBestLuc firefly luciferase reporter); experiment: Coupled bacterial transcription/translation assay; type: biochemical; settings: Example 106; read-out: Trans/Trans IC50
Method in brief: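 Coupled transcription/translation of firefly luciferase from 1 μg pBestLuc (tac promoter) in E. coli S30 extract, with or without test compound. Reaction 35 min at 37° C., then functional luciferase detected by luminescence.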

E. Coli = experiment: MIC, E. Coli; type: cell-based; settings: Escherichia coli; Example 106
Method in brief: (§4)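 Broth microdilution in duplicate, 150 μL: overnight-culture bacteria were added to compound in 4% DMSO in water. Final inoculum was about 10^5–10^6 CFU/well.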

S. Aureus = experiment: MIC, S. Aureus; type: cell-based; settings: Staphylococcus aureus; Example 106
Method in brief: as §4

S. aureus ATCC 13709 = experiment: MIC, S. aureus ATCC 13709; type: cell-based; settings: Staphylococcus aureus, ATCC13709, Example 111
Procedure: as §1, §2

P. aurginosa ATCC 25416 = experiment: MIC, P. aurginosa ATCC 25416; type: cell-based; settings: Example 111
Procedure: as §1, §2

P. aurginosa ATCC 29248 = experiment: MIC, P. aurginosa ATCC 29248; type: cell-based; settings: Example 111
Procedure: as §1, §2

P. vulgaris ATCC 8427 = experiment: MIC, P. vulgaris ATCC 8427; type: cell-based; settings: Proteus vulgaris, ATCC8427, Example 111
Procedure: as §1, §2

[4] = test system: gentamicin sensitive Acinetobacter baumannii #2 from Walter Reed; experiment: MIC, A. baumannii WReed 2; type: cell-based; settings: Acinetobacter baumannii, Example 111
Procedure: as §1, §2

[5] = test system: Staphylococcus aureus (Smith Strain ATCC 13709); experiment: Staphylococcus aureus mouse protection assay; type: in vivo, mice; settings: Staph Conc. 10^6, 10% Mucin, the 13th table

SMILES | MIC (E. coli ATCC 25922; ATCC25922, Example 112) [µM] | MIC (K. pneumoniae ATCC 10031; ATCC10031, Example 112) [µM] | MIC (S. aureus ATCC 29213) [µM] | MIC (P. aurginosa ATCC 27853) [µM] | MIC (A. baumannii ATCC 19606) [µM] | Kd [1] [nM] | Kd [2] [nM] | IC50 [3] [nM] | MIC (E. Coli) [µM] | MIC (S. Aureus) [µM] | MIC (E. coli ATCC 25922; ATCC25922, Example 111) [µM] | MIC (S. aureus ATCC 13709) [µM] | MIC (P. aurginosa ATCC 25416) [µM] | MIC (P. aurginosa ATCC 29248) [µM] | MIC (K. pneumoniae ATCC 10031; ATCC10031, Example 111) [µM] | MIC (P. vulgaris ATCC 8427) [µM] | MIC [4] [µM] | # Dead mice/Total mice in group ([5]; 0.5 mg/kg subcutaneously) | # Dead mice/Total mice in group ([5]; 1 mg/kg subcutaneously) | # Dead mice/Total mice in group ([5]; 2 mg/kg subcutaneously)
NCC[C@H](O)C(=O)N[C@@H]1C[C@H](N)[C@@H](O[C@H]2O[C@H](CN)CC[C@H]2N)[C@H](O[C@@H]2O[C@H](CO)[C@@H](O[C@H]3O[C@@H](CN)[C@@H](O)[C@H](O)[C@H]3N)[C@H]2OCCNCCc2ccccc2)[C@H]1O [Compound 87, N-1-haba-2″-O-phenylethylaminoethyl-3′,4′-dideoxy neomycin] | < 16 | < 16 | < 16 | < 16 | < 16 | – | – | – | – | – | – | – | – | – | – | – | – | – | – | –
NC[C@@H]1O[C@H](O[C@H]2[C@@H](O)[C@H](O[C@@H]3[C@@H](O)[C@H](N)C[C@H](N)[C@H]3O[C@H]3O[C@H](CO)[C@@H](O)[C@H](O)[C@H]3N)O[C@@H]2CO)[C@H](N)[C@@H](O)[C@@H]1O [paromomycin, reference compound] | – | – | – | – | – | 4800 | 600 | 100 | 20 to 40 (≈ 12.3 to 24.6 µg/mL) | 3 to 5 (≈ 1.85 to 3.08 µg/mL) | 5 to 10 (≈ 3.08 to 6.16 µg/mL) | 10 to 20 (≈ 6.16 to 12.3 µg/mL) | > 40 | > 40 | 0.6 to 1.3 (≈ 0.369 to 0.8 µg/mL) | > 40 | 2.5 to 5 (≈ 1.54 to 3.08 µg/mL) | 10/10 | 10/10 | 9/10
